Measurements from patent publication EP4635969A1, “NOVEL GLUCOCORTICOID, METHOD FOR PREPARING SAME, AND USE THEREOF” (Tianjin Pharmaceutical Biotechnology Co., Ltd., priority 2022, dated 2024).

Key:
[1] = tested on: dry eye syndrome model New Zealand rabbits; assay: Dry eye syndrome experiment (benzalkonium chloride model): tear secretion test with phenol red cotton threads; assay type: in vivo, male New Zealand White rabbits; details: compared with the model group
Protocol: Positive control drug: Fluorometholone Eye Drops (specification: 5 mL/5 mg; Santen Pharmaceutical (CHINA) Co., Ltd.; Lot No.: 1FM6625) was used as the positive control drug and stored at room temperature protected from light until use.
Thirty male New Zealand White rabbits (conventional grade) were prepared. Six rabbits were randomly selected as the blank control group, and the remaining animals were administered 0.1% benzalkonium chloride to the left eye twice daily (morning and evening) , 10 µL/animal each time. On day 6 of modeling, tear secretion was measured using phenol red cotton threads to determine whether the model was successfully established. […] During the administration, all animals except the blank control group were administered 10 µL of 0.1% benzalkonium chloride to the left eye once daily to maintain dry eye symptoms..
• Test time: D3, D7, D15; • Test animals: All animals were tested before grouping; all enrolled surviving animals were tested after administration; • Test method: Tear secretion was measured using phenol red cotton threads. The tear secretion test paper was folded and placed at the middle and outer 1/3 of the rabbit palpebral conjunctival sac for 1 min. The test paper was then removed, observed, and recorded for its wetting length. The test was repeated 3 times, and the values were averaged.
The normality and homogeneity of variance were tested by Levene's test. If there was no statistical significance (P > 0.05), one-way analysis of variance (ANOVA) was used for statistical analysis. If ANOVA was statistically significant (P ≤ 0.05), LSD test (parametric method) was used for comparative analysis. If the variance was heterogeneous (P ≤ 0.05), Kruskal-Wallis test was used. If the Kruskal-Wallis test was statistically significant (P ≤ 0.05), Dunnett's test (nonparametric method) was used for comparative analysis.

[2] = tested on: IL-17; assay: Psoriasis experiment (imiquimod model): inflammatory cytokine in serum (ELISA); assay type: in vivo, mice; details: for level of IL-17 / inflammatory cytokines in psoriasis model mice: compared with the model group
Protocol: Positive control drug: Fluticasone Propionate Cream (specification: 0.05% × 15 g, Zhejiang Xianju Pharmaceutical Co. Ltd., Lot No. 211106), stored at room temperature protected from light until use.
Adult mice were selected, and the skin of 2 cm × 3 cm on the back of mice was locally depilated. The mice in the model group and drug administration group were applied with 62.5 mg of 5% imiquimod cream on their back for modeling, while the mice in the blank control group were applied with medical petroleum jelly on their back daily. The above procedures were performed once a day for 7 consecutive days.
The mice in the drug administration group were applied with the corresponding drugs on their backs daily at a dose of 0.2 g per mouse, while the blank control group and the model group were only applied with 0.2 g of the test sample drug matrix. One hour after drug administration, the drugs were wiped off with sterile cotton swabs, followed by the application of imiquimod. The above procedures were performed once a day for 7 consecutive days.
After the PASI scoring on day 8 of modeling, blood was collected from the orbital sinus of mice and centrifuged at 3000 rpm for 10 min. The supernatant was extracted to measure the level of IL-17. All procedures were performed following the instructions of the ELISA kit.
Statistical analysis was performed using SPSS software, and the results were expressed as mean ± standard deviation. One-way ANOVA was used for intergroup comparisons. For data with homogeneous variance, the LSD test was used; for data with heterogeneous variance, the Dunnett-t test was used. A value of P < 0.05 was considered statistically significant.

[3] = tested on: inflammatory cytokines IL-6 and IL-12; assay: Anti-asthma pharmacodynamic experiment: inflammatory cytokines in bronchoalveolar lavage fluid (ELISA); assay type: in vivo, female BALB/c mice; details: compared with the model group
[4] = tested on: asthma model mice; assay: Anti-asthma pharmacodynamic experiment: airway hyperresponsiveness (Penh) after methacholine challenge; assay type: in vivo, female BALB/c mice; details: compared with the model group
[5] = tested on: inflammatory bowel disease model rats; assay: Inflammatory bowel disease experiment (TNBS model): macroscopic injury score of the colon; assay type: in vivo; details: for inflammatory response on the intestinal surface / intestinal symptoms: compared with the model group
Protocol: Pharmacological Example 7: Pharmacodynamic Experiment on Inflammatory Bowel Disease in Rats
Test samples: The jet-milled compounds 23 and 34 were accurately weighed and prepared as 2 mg/mL clear solutions using anhydrous ethanol, respectively. The solutions were then diluted to 0.2 mg/mL with double-distilled water as the test samples, and stored at room temperature protected from light until use.
Animals in Groups 2 to 5 were subjected to trinitrobenzene sulfonic acid (TNBS) modeling as follows: A 5% TNBS aqueous solution was adjusted to 20 mg/mL TNBS (50% ethanol solution) with alcohol and water. After fasting for 24 h, the rats were anesthetized using an inhalation anesthesia machine. A silicone hose was inserted approximately 8 cm into the anus, and then TNBS was injected at a dose of 50 mg/kg. After injection, the rats were placed vertically for 1 min to prevent the backflow of TNBS solution. Then, the rats were placed into their cages for observation until the animals recovered.
Drug administration started one day before modeling, with one dose administered 1 hour before modeling and then once a day for 5 consecutive days. […] Table 14. Animal grouping and drug administration dosages
The experiment ended on day 5 after TNBS modeling. After isoflurane anesthesia, blood was collected from the hearts, and the rats were euthanized. The abdominal cavity was rapidly opened, and the macroscopic injury scoring of the colon in rats was performed based on the adhesion, obstruction, thickening of the colonic wall, colonic congestion, and necrosis in the colon area. After clearing the colonic contents, the colonic samples were longitudinally incised. The proximal 2/3 of the colon was excised, prepared into Swiss rolls, and stored in 4% neutral buffered formalin for histopathological analysis. Tissues were trimmed, dehydrated, paraffin-embedded, and sectioned (approximately 5 µm thickness), stained with hematoxylin-eosin (HE), and observed for pathological changes. Pathologists performed blind scoring of colonic lesions.
Quantitative indices were first subjected to Bartlett's test for homogeneity of variance. When the variance was homogeneous (P > 0.05), one-way analysis of variance (ANOVA) was used for a statistical test; if there was statistical significance (P ≤ 0.05), Dunnett's t-test (Dunnett method) was used to compare intergroup differences; if there was no statistical significance (P > 0.05), the statistical analysis was concluded. When the variance was heterogeneous (P ≤ 0.05), Kruskal-Wallis H rank-sum test (K-W method) was used for statistical analysis: if there was statistical significance (P ≤ 0.05), Mann-Whitney U test (M-W method) was further performed to compare intergroup differences; if there was no statistical significance (P > 0.05), the statistical analysis was concluded.

[6] = tested on: epidermal layer in rats; assay: Adverse reactions of continuous dermal administration: thickness of the epidermal layer (H&E sections); assay type: in vivo, SD rats; details: for thickness of the epidermal layer after continuous dermal administration: compared with the blank control group
From the text: Pharmacological Example 10: Experiment on Adverse Reactions of Continuous Dermal Administration in Rats
Animals: SD rats, SPF grade, with an equal number of males and females, weighing 230-250 g.
Animal grouping: After adaptive feeding, the rats were randomly divided into 4 groups. […] One day before administration, the backs of rats were shaved at an area of 5 cm × 6 cm. […] The rats in the blank control group were applied with the blank matrix of corresponding mass on their backs, twice a day for a consecutive week. Table 21. Animal grouping and drug administration dosages for the experiment on adverse reactions of continuous dermal administration in rats
To examine the effects of continuous administration of the test samples on the epidermal layer, the back skin tissues were stained with hematoxylin and eosin (H&E) (magnification ×40), and the thickness of the epidermal layer was quantitatively measured based on the H&E-stained sections.

[7] = Stability in animal lung tissue homogenate, skin tissue homogenate and aqueous humor; assay type: in vitro ADME
[8] = Determination of stability in plasma in vitro, human plasma (LC-MS/MS); assay type: in vitro ADME; details: same experimental conditions (human and mouse plasma)
Protocol: Pharmacological Example 3: Determination of Stability in Plasma in Vitro
The stock solution was diluted with acetonitrile to obtain a working solution at a concentration of 100 µ M. The solution should be freshly prepared prior to use and maintained at room temperature during application.
990 µ L of human and mouse plasma (N = 2) were separately pipetted and pre-incubated at 37 °C for 5 min. Then, 10 µ L of the test compound working solution was added and vortexed thoroughly (the final concentration of the test compound was 1 µ M). Immediately, 50 µ L of the plasma sample was added to 150 µ L of ice-cold precipitation agent containing the internal standard and vortexed thoroughly as the 0-time sample. The remaining plasma sample was continuously incubated at 37 °C, and 50 µ L of the plasma sample was aspirated and added to 150 µ L of ice-cold precipitation agent containing the internal standard at preset sampling time points, followed by thorough vortexing. The collected samples were stored in a freezer at -60 to -90 °C until analysis.
The concentration of the test compound was determined by LC-MS/MS, and its degradation was monitored. (semi-quantitative determination was conducted by comparing the peak area of the analyte to that of the internal standard).

[9] = tested on: uveitis model rats; assay: Anti-uveitis pharmacodynamic experiment (LPS model): ocular pathological score; assay type: in vivo, male SD rats; details: compared with the model group
Protocol: Pharmacodynamic Experiment on Anti-Uveitis
Positive control drug: Fluorometholone Eye Drops (specification: 5 mL/5 mg; Santen Pharmaceutical (CHINA) Co., Ltd.; Lot No. : J20180068) was used as the positive control drug and stored at room temperature protected from light until use.
Fifty male SD rats underwent a one-week adaptive feeding period. […] Groups 2 to 5 were used to establish rat uveitis models by single subcutaneous injection of 1 mg/kg LPS (Salmonella; Sigma; Lot No. 0000164114) into the plantar tissue of the hindpaw. Salmonella endotoxin was dissolved in normal saline to prepare an injection solution at a concentration of 2 mg/mL, which was injected subcutaneously at 1 mg/kg into the plantar tissue of one paw of the rats. Group 1 was injected with an equal volume of normal saline.
At the end of the experiment, photos of the rats' eyes were taken using a slit-lamp microscope, and the differences in ocular lesions of rats among groups were compared and analyzed.
Statistical analysis was performed using SPSS software. Measurement data were expressed as mean ± standard deviation. One-way ANOVA was used for intergroup comparisons. For data with homogeneous variance, LSD test was used; for data with heterogeneous variance, Dunnett-t test was used. A value of P < 0.05 was considered statistically significant.

Compound: C[C@]12C=CC(=O)C=C1CC[C@H]1[C@@H]3C[C@H]4OC(c5ccc(CSC6CCOC6=O)cc5)O[C@@]4(C(=O)CO)[C@@]3(C)C[C@H](O)[C@@]12F (stereo partly drawn) [Compound 17, (6aS,6bR,7S,8aS,8bS,11aR,12aS,12bS)-6b-Fluoro-7-hydroxy-8b-(2-hydroxyacetyl)-6a,8a-dimethyl-10-(4-(((2-oxotetrahydrofuran-3-yl)thio)methyl)phenyl)-1,2,6a,6b,7,8,8a,8b,11a,12,12a,12b-do decahydro-4H-naphtho[2',1':4,5]indeno[1,2-d][1,3]dioxol-4-one]
- tear secretion [1]: significantly increased the tear secretion
- level of IL-17 / inflammatory cytokines in psoriasis model mice [2]: significantly decreased the level of IL-17
- IL-17 ([2]; serum, day 8 of modeling, 0.2 g cream per mouse daily for 7 days): 31.30 ± 14.99 pg/mL
- Effects on inflammatory cytokines in bronchoalveolar lavage fluid of mice [3]: pharmacological effects similar to those of compound 23
- Effects on airway hyperresponsiveness (Penh values) in mice [4]: significantly decreased the Penh values in mice
- inflammatory response on the intestinal surface / intestinal symptoms [5]: significantly alleviated the intestinal symptoms in inflammatory bowel disease model rats
- Epidermal layer thickness (µm) ([6]; 100 mg cream on the back twice a day for a week (compounds 1 mg/g, Compound Dexamethasone Acetate 0.75 mg/g)): 23.5 ± 3.5 µm
- thickness of the epidermal layer after continuous dermal administration [6]: no significant changes in the thickness of the epidermal layer were observed
- stability in animal lung tissue homogenate, skin tissue homogenate, and aqueous humor [7]: relatively stable
- plasma instability [8]: exhibited the characteristic of plasma instability
- ocular abnormalities / ocular pathological score [9]: significantly improved ocular abnormalities

Compound: C[C@]12C=CC(=O)C=C1[C@@H](F)C[C@H]1[C@@H]3C[C@H]4OC(c5ccc(CSC6CCOC6=O)nc5)O[C@@]4(C(=O)CO)[C@@]3(C)C[C@H](O)[C@@]12F (stereo partly drawn) [Compound 46, (25,6aS,6bR,78,8a8,8bS,11aR,12a8,12b8S)-2,6b-Difluoro-7-hydroxy-8b-(2-hydroxyacetyl)-6a,8a-dimethyl-10-(6-(((2-oxotetrahydrofuran-3-yl)thio)methyl)pyridin-3-yl)-1,2,6a,6b,7,8,8a,8b,11a,12, 12a,12b-dodecahydro-4H-naphtho[2',1':4,5]indeno[1,2-d][1,3]dioxol-4-one]
- tear secretion [1]: significantly increased the tear secretion
- level of IL-17 / inflammatory cytokines in psoriasis model mice [2]: significantly inhibited inflammatory cytokines in the skin of psoriasis model mice
- Effects on inflammatory cytokines in bronchoalveolar lavage fluid of mice [3]: pharmacological effects similar to those of compound 23
- Effects on airway hyperresponsiveness (Penh values) in mice [4]: significantly decreased the Penh values in mice
- inflammatory response on the intestinal surface / intestinal symptoms [5]: significantly alleviated the intestinal symptoms in inflammatory bowel disease model rats
- thickness of the epidermal layer after continuous dermal administration [6]: no significant changes in the thickness of the epidermal layer observed
- stability in animal lung tissue homogenate, skin tissue homogenate, and aqueous humor [7]: relatively stable
- plasma instability [8]: exhibited the characteristic of plasma instability
- ocular abnormalities / ocular pathological score [9]: significantly improved ocular abnormalities

Compound: C[C@]12C=CC(=O)C=C1[C@@H](F)C[C@H]1[C@@H]3C[C@H]4OC(c5ccc(CSC6CCOC6=O)cc5)O[C@@]4(C(=O)SCF)[C@@]3(C)C[C@H](O)[C@@]12F (stereo partly drawn) [Compound 34, S-(Fluoromethyl) (2S,6aS,6bR,7S,8aS,8bS,11aR,12aS,12bS)-2,6b-difluoro-7-hydroxy-6a,8a-dimethyl-4-oxo-10-(4-( ((2-oxotetrahydrofuran-3-yl)thio)methyl)phenyl)-1,2,4,6a,6b,7,8,8a,11a,12,12a,12b-dodecahydro-8bH-naphtho[2',1':4,5]indeno[1,2-d][1,3]dioxole-8b-carbothioate]
- tear secretion [1]: significantly increased the tear secretion
- level of IL-17 / inflammatory cytokines in psoriasis model mice [2]: significantly inhibited inflammatory cytokines in the skin of psoriasis model mice
- Effects on inflammatory cytokines in bronchoalveolar lavage fluid of mice [3]: pharmacological effects similar to those of compound 23
- Effects on airway hyperresponsiveness (Penh values) in mice [4]: significantly decreased the Penh values in mice
- Macroscopic injury score ([5]; colon, day 5 after TNBS, 2 mg/kg once a day (compounds intraintestinally, dexamethasone by gavage)): 5.00 ± 0.95
- inflammatory response on the intestinal surface / intestinal symptoms [5]: significantly inhibited the inflammatory response on the intestinal surface
- thickness of the epidermal layer after continuous dermal administration [6]: no significant changes in the thickness of the epidermal layer observed
- stability in animal lung tissue homogenate, skin tissue homogenate, and aqueous humor [7]: relatively stable
- plasma instability [8]: exhibited the characteristic of plasma instability
- ocular abnormalities / ocular pathological score [9]: significantly improved ocular abnormalities

Compound: C[C@]12C=CC(=O)C=C1CC[C@H]1[C@@H]3C[C@H]4OC(c5ccc(CSC6CCOC6=O)nc5)O[C@@]4(C(=O)CO)[C@@]3(C)C[C@H](O)[C@@]12Cl (stereo partly drawn) [Compound 48, (6aS,6bR,7S,8aS,8bS,11aR,12aS,12bS)-6b-Chloro-7-hydroxy-8b-(2-hydroxyacetyl)-6a,8a-dimethyl-10-(6-(((2-oxotetrahydrofuran-3-yl)thio)methyl)pyridin-3-yl)-1,2,6a,6b,7,8,8a,8b,11a,12,12a,12 b-dodecahydro-4H-naphtho[2',1':4,5]indeno[1,2-d][1,3]dioxol-4-one]
- tear secretion [1]: significantly increased the tear secretion
- level of IL-17 / inflammatory cytokines in psoriasis model mice [2]: significantly inhibited inflammatory cytokines in the skin of psoriasis model mice
- Effects on inflammatory cytokines in bronchoalveolar lavage fluid of mice [3]: pharmacological effects similar to those of compound 23
- Effects on airway hyperresponsiveness (Penh values) in mice [4]: significantly decreased the Penh values in mice
- inflammatory response on the intestinal surface / intestinal symptoms [5]: significantly alleviated the intestinal symptoms in inflammatory bowel disease model rats
- thickness of the epidermal layer after continuous dermal administration [6]: no significant changes in the thickness of the epidermal layer observed
- stability in animal lung tissue homogenate, skin tissue homogenate, and aqueous humor [7]: relatively stable
- plasma instability [8]: exhibited the characteristic of plasma instability
- ocular abnormalities / ocular pathological score [9]: significantly improved ocular abnormalities
